# Laboratory results as given in patent US9040507B2, “Method for treating inflammatory conditions” (Novelmed Therapeutics, Inc., priority 2008, dated 2015).
# Entries after “also recorded” stand apart in the source; their conditions may differ.
# Tests used:
# [1] = tested on: mouse collagen-induced arthritis (CIA); assay: Mouse collagen-induced arthritis (CIA) model; type: in vivo, DBA/J1 mice; settings: dosing from day 18
# Description: Male DBA/J1 mice (7-9 weeks old from Jackson Labs, Bar Harbor, Me., USA) were used. The CIA study using mice of same age, strain and source was performed at Boulder BioPATH Inc as described below. Male DBA/J1 mice were shaved at the base of the tail and injected with 0.1 ml emulsion consisting of a 1 to 1 (1 mg/l mg) mixture of type II chicken collagen with Mycobacterium butyricum (Difco) as an adjuvant. Three weeks later, the mice were boosted with another 0.1 ml injection of emulsion at the base of the tail to induce disease. Dosing started at day 18 while the last boost to induce the disease was at day 21. The mice were scored in a blinded manner twice weekly for 3 weeks for signs of arthritis in each paw according to the following scale: clinical signs were evaluated using the following scale: 0=normal; 1=one joint affected or mild diffuse erythema and swelling; 2=two joints affected or mild diffuse erythema and swelling; 3=three joints affected or mild diffuse erythema and swelling; 4=four joint affected or marked diffuse erythema and swelling; and 5=severe erythema and severe swelling. Upon study completion (day 28), mice were killed with CO2.
# [2] = tested on: rat adjuvant induced arthritis (AIA), established disease; settings: male rats, 2.5 mg/kg IP every other day from day 16 to day 40, left and right paw; listed as TC 5, 2.5 mg/kg
# [3] = tested on: rat adjuvant induced arthritis (AIA); assay: Prophylactic model of rat adjuvant induced arthritis (AIA); settings: for joint damage (radiographs; CT scan at 2.5 mg/kg): 2.5 mg/kg/day and 500 μg/kg/day IP; for paw inflammation (paw volume), dose effect: 2.5 mg/kg/day and 500 μg/kg/day IP from day 10, left and right paw; for joint histology (H&E staining): limb at study end
# [4] = tested on: rat adjuvant induced arthritis (AIA); settings: in vivo, ip, 5 mg/kg/day
# [5] = male rats, 500 μg/kg/day IP from day 10
# [6] = male rats, 10 mg/kg/day IP from day 10 for 14 days, left and right paw, 10 mg/kg/day
# [7] = male rats, 10 mg/kg/day IP, 10 mg/kg/day
# [8] = male rats, 10 mg/kg/day IP, limbs at study end, 10 mg/kg/day
# [9] = male rats, 5 mg/kg/day IP from day 10 for 14 days, right paw, 5 mg/kg/day
structure (smiles),measurement,setting,value
"c1ccc(-c2ccc(C(c3ccccc3)n3ccnc3)cc2)cc1 (stereo not drawn) [TC5, 1-[phenyl(4-phenylphenyl)methyl]-1H-imidazole]",clinical scoring of the paws (clinical signs of arthritis),"[1]; male mice, 2.5 and 0.25 mg/kg IP",significant prevention of arthritis with inhibition comparable to ENBREL
same,clinical scoring of the paws (clinical signs of arthritis),"[1]; male mice, 2.5 and 0.25 mg/kg IP, listed as TC 5",inhibited clinical signs of the disease comparable to ENBREL treated groups
same,clinical scoring of the paws (clinical signs of arthritis),"[1]; male mice, 2.5 and 0.25 mg/kg IP, listed as bifonazole",can reduce paw inflammation
same,paw inflammation (paw volume),[2],halted the progression of the disease
same,paw inflammation (paw volume),[3]; [5],maximum inhibition observed at the 500 μg/kg/day
same,paw inflammation (paw volume),"[3]; male rats, 500 μg/kg/day IP from day 10, listed as TC 5",also reduced paw inflammation
same,paw inflammation (paw volume),"[3]; male rats, 2.5 mg/kg/day IP from day 10",demonstrated maximal effect similar to ENBREL
same,joint damage (radiographs; CT scan at 2.5 mg/kg),[3]; male rats,effective is preserving the joint damage at both concentrations; also recorded: able to prevent significant joint damage compared to the disease control in a dose dependent manner
same,"paw inflammation (paw volume), dose effect",[3]; male rats,can prevent development and progression of rat adjuvant induced arthritis dose dependently
same,paw inflammation (paw volume),[3]; [6],reduced paw inflammation to control levels similar to those observed for ENBREL
same,paw inflammation (paw volume),"[3]; male rats, 10 mg/kg/day IP from day 10 for 14 days, left and right paw, listed as bifonazole, 10 mg/kg/day",can reduce paw inflammation
same,joint histology (H&E staining),[3]; [7],"minimal inflammation, reduced bone proliferation, preservation of the cartilage, and preservation of the synovial membrane; also recorded: significant preservation of the synovium membrane (white space), significant preservation of the cartilage (space between the 2 blue lines), and minor bone proliferation"
same,"joint damage (radiographs, CT scans)",[3]; [8],prevents joint damage similar to those from ENBREL treated group; also recorded: able to prevent significant joint damage compared to the disease control; also recorded: significant reduction in bone damage in treated animals compared to diseased animals
same,"joint damage (radiographs, CT scans)","[3]; male rats, 10 mg/kg/day IP, limbs at study end, listed as bifonazole, 10 mg/kg/day",can reduce paw inflammation (FIGS. 1-2) and ankle damage
same,joint damage (radiographs; CT scan of 500 μg/Kg oral group),"[3]; male rats, 5, 2.5 and 0.5 mg/kg/day oral gavage",effective in preserving the joint damage at all three concentrations tested; also recorded: significant reduction in bone damage in treated animals compared to diseased animals
same,paw inflammation (paw volume),"[3]; male rats, 5, 2.5 and 0.5 mg/kg/day oral gavage from day 10",not as effective as the IP dosing
same,paw inflammation (paw volume),"[3]; male rats, 5, 2.5 and 0.5 mg/kg/day oral gavage from day 10, listed as TC 5",dose dependent with the highest dose demonstrated maximal effect
"CC/C(=C(\c1ccccc1)c1ccc(OCCN(C)C)cc1)c1ccccc1 [Tamoxifen, (Z)-2-[4-(1,2-diphenylbut-1-enyl)phenoxy]-N,N-dimethyl-ethanamine]",paw inflammation (paw volume),[3]; [9],reduced paw inflammation to control levels similar to those observed for ENBREL
same,paw inflammation (paw volume),"[3]; male rats, 5 mg/kg/day IP from day 10 for 14 days, right paw, listed as tamoxifen, 5 mg/kg/day",can reduce paw inflammation
"COc1ccc(C(Cl)=C(c2ccc(OC)cc2)c2ccc(OC)cc2)cc1 [TC10, 1,1′,1″-(2-chloroethene-1,1,2-triyl)tris(4-methoxybenzene)]",clinical scoring of the paws (clinical signs of arthritis),"[1]; male mice, 25, 2.5 and 0.25 mg/kg IP",All three doses inhibited clinical signs of the disease; also recorded: significant prevention of arthritis with inhibition greater than ENBREL at all tested doses
same,clinical scoring of the paws (clinical signs of arthritis),"[1]; male mice, 25, 2.5 and 0.25 mg/kg IP, listed as chlorotrianisene",can reduce paw inflammation
same,weight loss,[4],near negligible
same,joint damage (radiographs),"[3]; female rats, 2.5 and 0.5 mg/kg/day IP",effective in preserving the joint damage at both concentrations tested; also recorded: able to prevent significant joint damage compared to the disease control
same,paw inflammation (paw volume),"[3]; female rats, 2.5 and 0.5 mg/kg/day IP from day 10 for 12 days, listed as TC 10",inhibited at both doses
same,paw inflammation (paw volume),"[3]; female rats, 5 and 2.5 mg/kg/day oral",prevented paw inflammation; also recorded: significant reduction in paw inflammation
same,joint damage (radiographs),"[3]; female rats, oral, 5 mg/kg/day",effective in female rates in preserving joint damage
same,paw inflammation (paw volume),[3]; [5],also reduced paw inflammation; also recorded: comparable results to ENBREL
same,paw inflammation (paw volume),"[3]; male rats, 2.5 mg/kg/day IP from day 10, 2.5 mg/kg/day",maximal effect better than ENBREL with nearly complete inhibition of paw inflammation; also recorded: near complete prevention of arthritis bringing paw inflammation near the non-disease control; also recorded: maximum inhibition observed at 2.5 mg/kg/day dose bringing inflammation down to the non-disease control level
same,joint damage (radiographs; CT scan at 2.5 mg/kg),[3]; male rats,effective is preserving the joint damage at both concentrations; also recorded: shows preservation of the joint damage; also recorded: able to prevent significant joint damage at both doses 2.5 mg and 0.5 mg compared to the disease control in a dose dependent manner; also recorded: Joint damage was almost completely prevented with no joint damage
same,"paw inflammation (paw volume), dose effect",[3]; male rats,can prevent development and progression of rat adjuvant induced arthritis dose dependently with maximum effect observed at 2.5 dose
same,paw inflammation (paw volume),[3]; [9],reduced paw inflammation to control levels similar to those observed for ENBREL
same,paw inflammation (paw volume),"[3]; male rats, 5 mg/kg/day IP from day 10 for 14 days, right paw, listed as NM2026, 5 mg/kg/day",able to inhibit paw inflammation similar to the effects of ENBREL
same,paw inflammation (paw volume),"[3]; male rats, 5 mg/kg/day oral gavage from day 10, 5 mg/kg/day",can prevent development and progression of rat adjuvant induced arthritis; also recorded: not as effective as the IP dosing
same,paw inflammation (paw volume),"[3]; male rats, 5 mg/kg/day oral gavage from day 10, listed as TC 10, 5 mg/kg/day",inhibited paw inflammation to ENBREL controls
same,"joint damage (radiographs, CT scans)","[3]; male rats, 5 mg/kg/day oral gavage, 5 mg/kg/day",effectively preserves the joint damage; also recorded: able to prevent significant joint damage compared to the disease control at 5 mg/kg dose tested; also recorded: near complete prevention of joint destruction at 5 mg/kg/day compared to the diseased control
same,paw inflammation (paw volume),[3]; [6],can prevent development and progression of rat adjuvant induced arthritis comparable to the effects of ENBREL; also recorded: able to inhibit paw inflammation similar to the effects of ENBREL
same,paw inflammation (paw volume),"[3]; male rats, 10 mg/kg/day IP from day 10 for 14 days, left and right paw, listed as TC 10, 10 mg/kg/day",reduced paw inflammation to control levels similar to those observed for ENBREL
same,joint histology (H&E staining),[3]; [7],"minimal inflammation, reduced bone proliferation, preservation of the cartilage, and preservation of the synovial membrane; also recorded: significant preservation of the synovium membrane (white space), significant preservation of the cartilage (space between the 2 blue lines), and minor bone proliferation"
same,"joint damage (radiographs, CT scans)",[3]; [8],prevents joint damage similar to those from ENBREL treated group; also recorded: able to prevent significant joint damage compared to the disease control; also recorded: significant reduction in bone damage in treated animals compared to diseased animals
